Measured values taken from PMC4389225, “Triaminopyrimidine is a fast-killing and long-acting antimalarial clinical candidate” (Nature Communications, 2015).
Read-outs that look alike come from different tables or passages of the source.

Experiments:
[1] = system: asexual blood stage of Pf; assay: Pf asexual blood stage potency (Pf IC50); assay type: cell-based, Plasmodium falciparum; conditions: for IC50: Plasmodium falciparum
From the text: The TAPs series emerged from a high-throughput screen (HTS) of 500,000 compounds from the AstraZeneca corporate library against the asexual blood stage of Pf using a high-content image-based approach. The procedure for synthesis of compounds 1-6, 10, 11 using a scheme similar to Fig. 1 is provided in Supplementary Note 1. The initial hit provided multiple diversification points for a robust lead optimization campaign. […] Compounds with 2-pyridyl modification at the 2-amino position of pyrimidine core improved potency and solubility at the cost of potent activity against hERG and acetylcholine esterase (AChE; compounds 3-6; Table 1). […] The observed hERG and AChE selectivity improvement with 7 could be attributed to the polar nature of the pyrazole group and its role in reducing the pKa of the core pyrimidine ring. […] To assess the potential for cross-resistance, representative TAPs were screened against a panel of clinical isolates and in vitro-generated mutant strains displaying varying mechanisms of resistance to antimalarial agents currently in use and under development, respectively, (Supplementary Tables 1–3).

hERG = target: T1, hERG (Homo sapiens, UniProt Q12809); assay: electrophysiology-based hERG assay using IonWorks HT (CHO cells); assay type: cell-based
T1 construct: expressed in transfected cells; host or cells: CHO cells
T1 sequence (Q12809 whole entry): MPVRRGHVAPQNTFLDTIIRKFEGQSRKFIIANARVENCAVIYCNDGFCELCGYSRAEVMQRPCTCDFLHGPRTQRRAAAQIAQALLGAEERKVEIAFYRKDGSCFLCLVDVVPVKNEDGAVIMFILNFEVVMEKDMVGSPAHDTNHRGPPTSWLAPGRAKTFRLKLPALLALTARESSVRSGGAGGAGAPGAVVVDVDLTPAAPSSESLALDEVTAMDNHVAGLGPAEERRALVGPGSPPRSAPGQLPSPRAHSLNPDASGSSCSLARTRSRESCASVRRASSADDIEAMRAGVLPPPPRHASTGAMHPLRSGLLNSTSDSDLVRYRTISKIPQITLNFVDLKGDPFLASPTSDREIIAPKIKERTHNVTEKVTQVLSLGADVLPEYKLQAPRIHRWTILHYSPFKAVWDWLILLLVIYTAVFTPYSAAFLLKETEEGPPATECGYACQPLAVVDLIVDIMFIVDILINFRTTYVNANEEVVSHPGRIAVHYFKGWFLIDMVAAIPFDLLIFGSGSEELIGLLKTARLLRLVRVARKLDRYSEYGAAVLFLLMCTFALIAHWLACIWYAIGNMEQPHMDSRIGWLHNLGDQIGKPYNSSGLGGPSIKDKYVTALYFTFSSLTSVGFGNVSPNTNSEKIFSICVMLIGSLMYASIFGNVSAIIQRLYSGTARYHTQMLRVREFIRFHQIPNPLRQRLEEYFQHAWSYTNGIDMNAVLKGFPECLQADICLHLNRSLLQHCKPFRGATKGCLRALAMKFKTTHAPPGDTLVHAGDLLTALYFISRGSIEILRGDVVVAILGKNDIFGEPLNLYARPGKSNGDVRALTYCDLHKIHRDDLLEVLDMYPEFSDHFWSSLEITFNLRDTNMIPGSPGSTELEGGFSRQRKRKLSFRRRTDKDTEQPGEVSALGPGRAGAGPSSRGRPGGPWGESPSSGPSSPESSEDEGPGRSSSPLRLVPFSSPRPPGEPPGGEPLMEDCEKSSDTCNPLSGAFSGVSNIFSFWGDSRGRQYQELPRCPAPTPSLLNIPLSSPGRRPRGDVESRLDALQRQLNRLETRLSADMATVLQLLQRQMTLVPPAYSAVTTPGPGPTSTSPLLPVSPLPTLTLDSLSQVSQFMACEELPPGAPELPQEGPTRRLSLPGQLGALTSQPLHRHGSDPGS
Method: hERG IC50 was determined in an electrophysiology-based hERG assay using IonWorks HT (CHO cells) as described earlier.

[2] = target: T2, acetylcholine esterase (AChE) (Homo sapiens, UniProt P22303); assay: AChE enzyme activity assay (CEREP); assay type: biochemical
T2 construct: purchased CEREP, France (external assay service) 0363
T2 sequence (P22303 32-614): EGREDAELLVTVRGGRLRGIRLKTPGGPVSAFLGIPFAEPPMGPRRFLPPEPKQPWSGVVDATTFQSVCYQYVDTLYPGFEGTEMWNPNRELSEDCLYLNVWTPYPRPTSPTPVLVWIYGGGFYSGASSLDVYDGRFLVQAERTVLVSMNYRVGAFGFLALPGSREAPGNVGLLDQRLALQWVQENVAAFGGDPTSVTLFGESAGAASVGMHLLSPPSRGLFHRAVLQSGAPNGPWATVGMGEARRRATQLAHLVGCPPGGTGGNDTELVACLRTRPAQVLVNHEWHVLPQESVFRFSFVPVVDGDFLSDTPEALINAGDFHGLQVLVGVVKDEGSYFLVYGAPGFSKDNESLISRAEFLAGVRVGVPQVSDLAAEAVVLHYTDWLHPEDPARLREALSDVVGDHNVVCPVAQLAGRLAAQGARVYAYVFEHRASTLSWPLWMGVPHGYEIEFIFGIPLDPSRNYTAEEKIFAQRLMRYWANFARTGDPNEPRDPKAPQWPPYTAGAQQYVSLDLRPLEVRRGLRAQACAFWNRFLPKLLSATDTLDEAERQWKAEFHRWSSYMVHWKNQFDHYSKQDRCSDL
Method: (§1) An in vitro pharmacological profiling panel was specifically designed for the detection of potential high- risk clinical adverse drug reactions. The panel comprised of 26 diverse targets (6 enzymes, 2 transporters, 9 G-protein-coupled receptors (GPCRs), 5 ion channels along with hERG, M2, alpha1A and AchE) and was conduced externally by CEREP, France […]. […] Detailed methodology for in vitro pharmacological profiling assays provided by CEREP can be found at http://www.cerep.fr, with specific reference to the AChE (cat. no. 0363), Muscarinic M1 receptor (cat. no. 0091) and Adrenergic α1A receptor (cat. no. 2338) assays. For enzyme and kinase assays, the results were expressed as a percent inhibition of control-specific activity obtained in the presence of the test compound. The IC50 values (concentration causing a half-maximal inhibition of control-specific activity) and Hill coefficients (nH) were determined by nonlinear regression analysis of the inhibition/concentration–response curves using Hill equation curve fitting as described earlier.

α1A adrenoceptor = target: T3, α1A adrenoceptor (Homo sapiens, UniProt P35348); assay: α1A adrenoceptor radioligand binding (CEREP)
T3 construct: purchased CEREP, France (external assay service) 2338
T3 sequence (P35348 1-466): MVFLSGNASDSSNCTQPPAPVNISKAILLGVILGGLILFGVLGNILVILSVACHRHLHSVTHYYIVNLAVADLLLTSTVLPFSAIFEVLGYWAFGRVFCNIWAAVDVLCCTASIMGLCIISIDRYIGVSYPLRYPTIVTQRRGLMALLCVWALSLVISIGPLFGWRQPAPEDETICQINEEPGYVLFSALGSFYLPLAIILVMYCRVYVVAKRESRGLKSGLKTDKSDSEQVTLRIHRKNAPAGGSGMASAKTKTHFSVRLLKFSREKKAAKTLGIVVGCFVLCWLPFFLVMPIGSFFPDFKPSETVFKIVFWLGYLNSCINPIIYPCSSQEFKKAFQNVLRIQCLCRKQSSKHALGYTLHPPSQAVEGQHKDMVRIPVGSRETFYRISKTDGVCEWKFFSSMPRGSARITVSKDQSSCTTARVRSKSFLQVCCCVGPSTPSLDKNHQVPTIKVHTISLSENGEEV
Method: as §1
For radioligand binding assays, the results are expressed as % inhibition of control-specific binding obtained in the presence of the test compounds. The IC50 values (concentration causing a half-maximal inhibition of control-specific binding) and Hill coefficients (nH) were determined by nonlinear regression analysis of the competition curves generated with mean replicate values using Hill equation curve fitting. The inhibition constants (Ki) were subsequently calculated by applying the Cheng Prusoff equation[38].

[3] = Plasma protein binding, human; conditions: for fraction unbound: human, plasma
Ion channel [4] = assay: Secondary pharmacology panel, target #2
Method: (§2) An in vitro pharmacological profiling panel was specifically designed for the detection of potential high- risk clinical adverse drug reactions. […] For enzyme and kinase assays, the results were expressed as a percent inhibition of control-specific activity obtained in the presence of the test compound. The IC50 values (concentration causing a half-maximal inhibition of control-specific activity) and Hill coefficients (nH) were determined by nonlinear regression analysis of the inhibition/concentration–response curves using Hill equation curve fitting as described earlier[37].
(§3) For assessment of activity against these targets, compounds were tested in an 8-point
(§4) concentration response covering half-log units up to a top test concentration of 100 µM, and
(§5) an IC50 or Ki determined using either radio ligand binding assays or enzyme activity assays.

GPCR [5] = assay: Secondary pharmacology panel, target #6
Method: as §2, §3, §4, §5

Transporter [6] = assay: Secondary pharmacology panel, target #7
Method: as §2, §3, §4, §5

GPCR [7] = assay: Secondary pharmacology panel, target #8
Method: as §2, §3, §4, §5

GPCR [8] = assay: Secondary pharmacology panel, target #9
Method: as §2, §3, §4, §5

GPCR [9] = assay: Secondary pharmacology panel, target #10
Method: as §2, §3, §4, §5

GPCR [10] = assay: Secondary pharmacology panel, target #12
Method: as §2, §3, §4, §5

GPCR [11] = assay: Secondary pharmacology panel, target #13
Method: as §2, §3, §4, §5

Transporter [12] = assay: Secondary pharmacology panel, target #14
Method: as §2, §3, §4, §5

Enzyme [13] = assay: Secondary pharmacology panel, target #15
Method: (§6) For enzyme and kinase assays, the results were expressed as a percent inhibition of control-specific activity obtained in the presence of the test compound. The IC50 values (concentration causing a half-maximal inhibition of control-specific activity) and Hill coefficients (nH) were determined by nonlinear regression analysis of the inhibition/concentration–response curves using Hill equation curve fitting as described earlier[37].
as §3, §4, §5

Ion channel [14] = assay: Secondary pharmacology panel, target #16
Method: as §2, §3, §4, §5

Enzyme [15] = assay: Secondary pharmacology panel, target #19
Method: as §6, §3, §4, §5

GPCR 9 = assay: Secondary pharmacology panel, target #20
Method: as §6
targets (8 enzymes, 5 ion channels, 10 GPCRs and 2 transporters) and hERG.
as §3, §4, §5

Ion channel [16] = assay: Secondary pharmacology panel, target #21
Method: as §2, §3, §4, §5

GPCR [17] = assay: Secondary pharmacology panel, target #22
Method: as §2, §3, §4, §5

Enzyme [18] = assay: Secondary pharmacology panel, target #23
Method: as §6, §3, §4, §5

Enzyme [19] = assay: Secondary pharmacology panel, target #25
Method: as §6, §3, §4, §5

GPCR [20] = assay: Secondary pharmacology panel, target #26
Method: as §2, §3, §4, §5

[21] = Target #18, hERG, read-out: Binding Ki / Enzyme IC50
[22] = Binding Ki / Enzyme IC50, Target #3, AChE

Row | Structure (SMILES) | IC50 [1] [µM] | IC50 (hERG; [21]) [µM] | IC50 (hERG; hERG IC50) [µM] | IC50 [2, 22] [µM] | IC50 ([2]; read-out: AChE IC50) [µM] | IC50 (α1A adrenoceptor) [µM] | Ki (α1A adrenoceptor) [µM] | fraction unbound [3] | Binding Ki / Enzyme IC50 (Ion channel [4]) [µM] | Binding Ki / Enzyme IC50 (GPCR [5]) [µM] | Binding Ki / Enzyme IC50 (Transporter [6]) [µM] | Binding Ki / Enzyme IC50 (GPCR [7]) [µM] | Binding Ki / Enzyme IC50 (GPCR [8]) [µM] | Binding Ki / Enzyme IC50 (GPCR [9]) [µM] | Binding Ki / Enzyme IC50 (GPCR [10]) [µM] | Binding Ki / Enzyme IC50 (GPCR [11]) [µM] | Binding Ki / Enzyme IC50 (Transporter [12]) [µM] | Binding Ki / Enzyme IC50 (Enzyme [13]) [µM] | Binding Ki / Enzyme IC50 (Ion channel [14]) [µM] | Binding Ki / Enzyme IC50 (Enzyme [15]) [µM] | further results
1 | Cc1cc(Nc2ncc(N3CCN(C)CC3)c(N3CCCC3)n2)ccn1 [compound 2] | 0.6 | 85.02 | 85 | 0.179 | 0.16 | 3.1 | 1.46 | 0.402 | 0.933 | 2.695 | 17.1 | 4.735 | > 100 | 8.42 | 30.45 | 38.7 | 31.45 | 13 | 33.2 | > 100 | Selectivity ratio for AChE (IC50 / blood Cmin at ED90 in the Pf/SCID model) [2]: < 1; Selectivity ratio for α1A (IC50 / blood Cmin at ED90 in the Pf/SCID model) (α1A adrenoceptor): < 1; Binding Ki / Enzyme IC50 (GPCR 9): > 100 µM; Binding Ki / Enzyme IC50 (Ion channel [16]): > 100 µM; Binding Ki / Enzyme IC50 (GPCR [17]): > 100 µM; Binding Ki / Enzyme IC50 (Enzyme [18]): > 100 µM; Binding Ki / Enzyme IC50 (Enzyme [19]): > 100 µM; Binding Ki / Enzyme IC50 (GPCR [20]): > 100 µM
2 | Cc1nc(Nc2ncc(N3CCN(C)[C@H](C)C3)c(Nc3cc(C)n(C)n3)n2)cc(C2CC2)c1F [compound 12, (R)-N2-(4-cyclopropyl-5-fluoro-6-methylpyridin-2-yl)-N4-(1,5-dimethyl-1H-pyrazol-3-yl)-5-(3,4-dimethylpiperazin-1-yl)pyrimidine-2,4-diamine] | 0.009 | 35.9 | 33 | 78 | > 75 | 1.2 | 0.604 | 0.025 | 2.62 | 7.82 | 3.85 | > 100 | 2.21 | > 100 | 10.9 | 11.5 | 10.1 | 11.6 | > 100 | 14.5 | improvement in Pf potency ([1]; compound 12 versus compound 2): > 60 fold; selectivity ratio (hERG; human, CHO cells that express hERG, relative to Pf potency, read-out: selectivity against hERG): > 1000; selectivity against AChE ([2]; relative to Pf potency): > 1,000 fold; Plasma protein binding (% free) ([3]; Human): 2.5 % free; Protein binding (human free) ([3]; Human): 2.5%; reduction in free fraction ([3]; compound 12 versus compound 2): 10 fold; Binding Ki / Enzyme IC50 (GPCR 9): > 100 µM; Binding Ki / Enzyme IC50 (Ion channel [16]): > 100 µM; Binding Ki / Enzyme IC50 (GPCR [17]): > 100 µM; Binding Ki / Enzyme IC50 (Enzyme [18]): > 100 µM; Binding Ki / Enzyme IC50 (Enzyme [19]): > 100 µM; Binding Ki / Enzyme IC50 (GPCR [20]): > 100 µM
